Literature values, collected in patent US12390417B2, “Praziquantel formulations” (Villya LLC, priority 2020, dated 2025).
≈ marks a conversion by molar mass, not a printed value.

Conditions: in water; according to the Merck Index

solubility: 400 µg/mL (≈ 1280 µM)
SMILES: O=C(C1CCCCC1)N1CC(=O)N2CCc3ccccc3C2C1 (racemic) [Praziquantel, (RS)-2-(Cyclohexylcarbonyl)-1,2,3,6,7,11b-hexahydro-4H-pyrazino[2,1-a]isoquinolin-4-one]
